pIC50: −log10 of the molar value.
What follows are molecules tested on Hep3B cells (assay: EPO production assay (ELISA of culture supernatant)). Conditions: Homo sapiens, 3 μmol/L test compound, 48 hours, relative to control (0.1% DMSO), read-out: EPO production stimulation rate with 3 μmol/L test compound.
Assay type: cell-based
Description: The stimulatory effect of the compound onEPO production was determined as follows using Hep3B cells.
Cells were seeded on 96 well plates at 40000 cells/well, and the plate was incubated overnight in MEM medium containing 10% fetal bovine serum (FBS) at 37° C. under 5% CO2. The next day, the medium was replaced with MEM containing 0.5% FBS, followed by addition of test compound. The test compound was dissolved in dimethyl sulfoxide and added to the cell so that the final concentration of dimethyl sulfoxide was 0.1%. After incubation for additional 48 hours, the culture supernatant was collected, and EPO contained in the supernatant was determined using ELISA kit (EPO ELISA Kit 11-693-417-001, Roche Co.). The results were expressed as stimulation rate of EPO production (fold), which was calculated as the relative value of the EPO production with 3 μmol/L of the test compound compared to the EPO production without stimulation (control).
Stimulation rate of EPO production (fold)=(EPO production with addition of test compound)/(EPO production of control)

Point of comparison: `O=C(O)c1cnn(-c2nc(O)c3c(cnn3CCCn3ccc4ccccc43)n2)c1` [Example 167], fold induction at 3 µM 2.1. Against it:
- O=C(O)c1cnn(-c2nc(O)c3c(cnn3Cc3cccc(-c4cccc(F)c4)c3)n2)c1 [Example 44] — higher, 4.9
- O=C(O)c1cnn(-c2nc(O)c3c(cnn3CCCOc3cccc4ccccc34)n2)c1 [Example 192] — higher, 3.5
- O=C(O)c1cnn(-c2nc(O)c3c(cnn3Cc3ccc(-c4ccc(F)cc4F)nc3)n2)c1 [Example 104] — higher, 5.4
- O=C(O)c1cnn(-c2nc(O)c3c(cnn3Cc3ccc(F)c(Cl)c3)n2)c1 [Example 10] — higher, 3.4
- CCc1ccccc1-c1ccc(Cn2ncc3nc(-n4cc(C(=O)O)cn4)nc(O)c32)cc1 [Example 58] — higher, 9.3
- O=C(O)c1cnn(-c2nc(O)c3c(cnn3Cc3ccc(C4CCCCC4)cc3)n2)c1 [Example 37] — higher, 8.3
- C[C@H](c1ccc2ccccc2c1)n1ncc2nc(-n3cc(C(=O)O)cn3)nc(O)c21 [Example 30] — higher, 5.5
- O=C(O)c1cnn(-c2nc(O)c3c(cnn3Cc3ccc(-c4ccccc4F)cc3F)n2)c1 [Example 80] — higher, 9.5
- O=C(O)c1cnn(-c2nc(O)c3c(cnn3CC3(COc4ccc5c(c4)CCCC5)CC3)n2)c1 [Example 199] — higher, 5
- Cc1c(Cn2ncc3nc(-n4cc(C(=O)O)cn4)nc(O)c32)ccc2ccccc12 [Example 35] — higher, 5.7
- O=C(O)c1cnn(-c2nc(O)c3c(cnn3CCOc3ccccc3C(F)(F)F)n2)c1 [Example 201] — higher, 3.2
- O=C(O)c1cnn(-c2nc(O)c3c(cnn3Cc3cccc(OC(F)(F)F)c3)n2)c1 [Example 11] — higher, 2.5
- O=C(O)c1cnn(-c2nc(O)c3c(cnn3CCCN(c3ccccc3)c3ccccc3)n2)c1 [Example 168] — higher, 66
- CCCC(CCC)Cn1ncc2nc(-n3cc(C(=O)O)cn3)nc(O)c21 [Example 495] — higher, 18
- CC(C)(Cn1ncc2nc(-n3cc(C(=O)O)cn3)nc(O)c21)Oc1ccccc1Cl [Example 209] — higher, 2.2
- O=C(O)c1cnn(-c2nc(O)c3c(cnn3Cc3cc(F)cc(C(F)(F)F)c3)n2)c1 [Example 8] — higher, 5.4
- C[C@H]1CC[C@H](Cn2nc(Cl)c3nc(-n4cc(C(=O)O)cn4)nc(O)c32)CC1 [Example 223] — higher, 3.2
- C[C@@H](c1ccc(Cl)cc1)n1ncc2nc(-n3cc(C(=O)O)cn3)nc(O)c21 [Example 21] — higher, 7.5
- O=C(O)c1cnn(-c2nc(O)c3c(cnn3Cc3cccc(-c4ccccc4)c3F)n2)c1 [Example 52] — higher, 3.3

The molecules below were run against T1, human HIF-PHD2 (Homo sapiens, UniProt Q9GZT9) (assay: HIF-PHD inhibition assay (fluorescence polarization), human HIF-PHD2). Conditions: 2-oxoglutaric acid 3.33 μmol/L.
T1 construct: purchased CrystalGenomics Ltd
Assay type: biochemical
In short: (§1)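 Activity was derived as the fluorescence polarization (mP) after enzyme addition minus that measured before enzyme addition. Probe bore a 5′-fluoresceinamide (FAM) label with an aminocaproic acid (ACA) linker.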

T1 sequence (Q9GZT9 2-426 limits assumed): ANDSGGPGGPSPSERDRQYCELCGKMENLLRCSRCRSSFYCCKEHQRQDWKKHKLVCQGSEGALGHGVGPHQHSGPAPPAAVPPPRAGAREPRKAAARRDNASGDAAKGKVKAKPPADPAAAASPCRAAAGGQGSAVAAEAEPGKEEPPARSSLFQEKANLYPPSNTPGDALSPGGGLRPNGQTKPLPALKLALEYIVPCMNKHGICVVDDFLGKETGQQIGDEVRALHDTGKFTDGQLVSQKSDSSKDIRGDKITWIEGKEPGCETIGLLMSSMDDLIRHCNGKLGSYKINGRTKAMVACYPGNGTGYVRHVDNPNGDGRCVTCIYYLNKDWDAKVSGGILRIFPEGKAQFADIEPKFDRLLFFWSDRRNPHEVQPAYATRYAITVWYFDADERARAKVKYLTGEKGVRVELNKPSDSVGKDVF

Point of comparison: `O=C(O)c1cnn(-c2nc(O)c3c(cnn3Cc3ccc(F)c(Cl)c3)n2)c1` [Example 10], pIC50 7.66. Against it:
- O=C(O)c1cnn(-c2nc(O)c3c(cnn3Cc3cccc(-c4cccc(F)c4)c3)n2)c1 [Example 44] — 0.35 log units lower, 7.31
- O=C(O)c1cnn(-c2nc(O)c3c(cnn3CCCOc3cccc4ccccc34)n2)c1 [Example 192] — within 0.2 log units, 7.55
- O=C(O)c1cnn(-c2nc(O)c3c(cnn3Cc3ccc(-c4ccc(F)cc4F)nc3)n2)c1 [Example 104] — 0.34 log units higher, 8.00
- CCc1ccccc1-c1ccc(Cn2ncc3nc(-n4cc(C(=O)O)cn4)nc(O)c32)cc1 [Example 58] — within 0.2 log units, 7.68
- O=C(O)c1cnn(-c2nc(O)c3c(cnn3Cc3ccc(C4CCCCC4)cc3)n2)c1 [Example 37] — within 0.2 log units, 7.59
- C[C@H](c1ccc2ccccc2c1)n1ncc2nc(-n3cc(C(=O)O)cn3)nc(O)c21 [Example 30] — 0.52 log units lower, 7.14
- O=C(O)c1cnn(-c2nc(O)c3c(cnn3Cc3ccc(-c4ccccc4F)cc3F)n2)c1 [Example 80] — 0.39 log units higher, 8.05
- O=C(O)c1cnn(-c2nc(O)c3c(cnn3CC3(COc4ccc5c(c4)CCCC5)CC3)n2)c1 [Example 199] — 0.77 log units lower, 6.89
- Cc1c(Cn2ncc3nc(-n4cc(C(=O)O)cn4)nc(O)c32)ccc2ccccc12 [Example 35] — within 0.2 log units, 7.74
- O=C(O)c1cnn(-c2nc(O)c3c(cnn3CCOc3ccccc3C(F)(F)F)n2)c1 [Example 201] — 0.77 log units lower, 6.89
- O=C(O)c1cnn(-c2nc(O)c3c(cnn3Cc3cccc(OC(F)(F)F)c3)n2)c1 [Example 11] — 0.45 log units lower, 7.21
- O=C(O)c1cnn(-c2nc(O)c3c(cnn3CCCN(c3ccccc3)c3ccccc3)n2)c1 [Example 168] — within 0.2 log units, 7.64
- O=C(O)c1cnn(-c2nc(O)c3c(cnn3CCCn3ccc4ccccc43)n2)c1 [Example 167] — within 0.2 log units, 7.77
- CCCC(CCC)Cn1ncc2nc(-n3cc(C(=O)O)cn3)nc(O)c21 [Example 495] — 0.49 log units lower, 7.17
- CC(C)(Cn1ncc2nc(-n3cc(C(=O)O)cn3)nc(O)c21)Oc1ccccc1Cl [Example 209] — within 0.2 log units, 7.48
- O=C(O)c1cnn(-c2nc(O)c3c(cnn3Cc3cc(F)cc(C(F)(F)F)c3)n2)c1 [Example 8] — 0.34 log units lower, 7.32
- C[C@H]1CC[C@H](Cn2nc(Cl)c3nc(-n4cc(C(=O)O)cn4)nc(O)c32)CC1 [Example 223] — within 0.2 log units, 7.55
- C[C@@H](c1ccc(Cl)cc1)n1ncc2nc(-n3cc(C(=O)O)cn3)nc(O)c21 [Example 21] — within 0.2 log units, 7.77
- O=C(O)c1cnn(-c2nc(O)c3c(cnn3Cc3cccc(-c4ccccc4)c3F)n2)c1 [Example 52] — the same, 7.66

What follows are molecules tested against T2, human HIF-PHD3 (Homo sapiens, UniProt Q9H6Z9) (assay: HIF-PHD inhibition assay (fluorescence polarization), human HIF-PHD3). Conditions: 2-oxoglutaric acid 166 μmol/L.
T2 construct: purchased CrystalGenomics Ltd
Assay type: biochemical
In short: as §1

T2 sequence (Q9H6Z9 whole entry): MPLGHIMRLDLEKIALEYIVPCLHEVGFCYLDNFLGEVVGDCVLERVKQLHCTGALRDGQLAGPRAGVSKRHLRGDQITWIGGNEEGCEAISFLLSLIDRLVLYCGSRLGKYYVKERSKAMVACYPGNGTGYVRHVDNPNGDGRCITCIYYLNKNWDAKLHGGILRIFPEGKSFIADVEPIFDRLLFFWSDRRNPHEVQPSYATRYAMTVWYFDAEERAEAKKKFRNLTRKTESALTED

Point of comparison: `O=C(O)c1cnn(-c2nc(O)c3c(cnn3CCCN(c3ccccc3)c3ccccc3)n2)c1` [Example 168], pIC50 6.70. Against it:
- O=C(O)c1cnn(-c2nc(O)c3c(cnn3Cc3cccc(-c4cccc(F)c4)c3)n2)c1 [Example 44] — 0.29 log units lower, 6.41
- O=C(O)c1cnn(-c2nc(O)c3c(cnn3CCCOc3cccc4ccccc34)n2)c1 [Example 192] — 0.24 log units lower, 6.46
- O=C(O)c1cnn(-c2nc(O)c3c(cnn3Cc3ccc(-c4ccc(F)cc4F)nc3)n2)c1 [Example 104] — 0.26 log units higher, 6.96
- O=C(O)c1cnn(-c2nc(O)c3c(cnn3Cc3ccc(F)c(Cl)c3)n2)c1 [Example 10] — within 0.2 log units, 6.62
- CCc1ccccc1-c1ccc(Cn2ncc3nc(-n4cc(C(=O)O)cn4)nc(O)c32)cc1 [Example 58] — 0.49 log units higher, 7.19
- O=C(O)c1cnn(-c2nc(O)c3c(cnn3Cc3ccc(C4CCCCC4)cc3)n2)c1 [Example 37] — 0.22 log units higher, 6.92
- C[C@H](c1ccc2ccccc2c1)n1ncc2nc(-n3cc(C(=O)O)cn3)nc(O)c21 [Example 30] — 0.36 log units lower, 6.34
- O=C(O)c1cnn(-c2nc(O)c3c(cnn3Cc3ccc(-c4ccccc4F)cc3F)n2)c1 [Example 80] — 0.68 log units higher, 7.38
- O=C(O)c1cnn(-c2nc(O)c3c(cnn3CC3(COc4ccc5c(c4)CCCC5)CC3)n2)c1 [Example 199] — 0.74 log units lower, 5.96
- Cc1c(Cn2ncc3nc(-n4cc(C(=O)O)cn4)nc(O)c32)ccc2ccccc12 [Example 35] — within 0.2 log units, 6.60
- O=C(O)c1cnn(-c2nc(O)c3c(cnn3CCOc3ccccc3C(F)(F)F)n2)c1 [Example 201] — 0.63 log units lower, 6.07
- O=C(O)c1cnn(-c2nc(O)c3c(cnn3Cc3cccc(OC(F)(F)F)c3)n2)c1 [Example 11] — 0.37 log units lower, 6.33
- O=C(O)c1cnn(-c2nc(O)c3c(cnn3CCCn3ccc4ccccc43)n2)c1 [Example 167] — within 0.2 log units, 6.85
- CCCC(CCC)Cn1ncc2nc(-n3cc(C(=O)O)cn3)nc(O)c21 [Example 495] — 0.40 log units lower, 6.30
- CC(C)(Cn1ncc2nc(-n3cc(C(=O)O)cn3)nc(O)c21)Oc1ccccc1Cl [Example 209] — within 0.2 log units, 6.64
- O=C(O)c1cnn(-c2nc(O)c3c(cnn3Cc3cc(F)cc(C(F)(F)F)c3)n2)c1 [Example 8] — 0.45 log units lower, 6.25
- C[C@H]1CC[C@H](Cn2nc(Cl)c3nc(-n4cc(C(=O)O)cn4)nc(O)c32)CC1 [Example 223] — 0.68 log units lower, 6.02
- C[C@@H](c1ccc(Cl)cc1)n1ncc2nc(-n3cc(C(=O)O)cn3)nc(O)c21 [Example 21] — 0.42 log units lower, 6.28
- O=C(O)c1cnn(-c2nc(O)c3c(cnn3Cc3cccc(-c4ccccc4)c3F)n2)c1 [Example 52] — within 0.2 log units, 6.60
